Measurements reported in the supplement of paper PMC10307832.

Key:
Experiment in all cases: relative viability (nuclei count vs DMSO), 5 days (fraction); higher = more cells survive
[1] = tested on: HCC-366
How it was run: (§1)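 Lung cancer cell lines in 1536-well plates were dosed by pin tool the day after seeding, either with one drug alone or with a fixed anchor-drug dose plus five library-drug doses (not always all listed) in √10 steps. After 5 days, cells were fixed and their nuclei stained in one step (final 0.05% Triton X-100, 1% formaldehyde, 1 ug/ml Hoechst), then counted on 4× images. Relative viability is the nuclei count in treated wells divided by that in vehicle wells. Values are medians of duplicate plates.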

[2] = tested on: HCC-44
How it was run: as §1

[3] = tested on: LOU-NH91
How it was run: as §1

[4] = tested on: NCI-H1437
How it was run: as §1

[5] = tested on: NCI-H1648
How it was run: as §1

[6] = tested on: NCI-H2085
How it was run: as §1

[7] = tested on: NCI-H3122
How it was run: as §1

[8] = tested on: A549
How it was run: as §1

[9] = tested on: Calu-6
How it was run: as §1

[10] = tested on: EBC-1
How it was run: as §1

[11] = tested on: IA-LM
How it was run: as §1

[12] = tested on: NCI-H1299
How it was run: as §1

[13] = tested on: NCI-H1703
How it was run: as §1

SMILES: CCN(CC)CCCCNc1ncc2cc(-c3cc(OC)cc(OC)c3)c(NC(=O)NC(C)(C)C)nc2n1 + Nc1nc2[nH]cc(CCc3ccc(C(=O)N[C@@H](CCC(=O)O)C(=O)O)cc3)c2c(=O)[nH]1 [Pemetrexed] (partner 0.2 µM)
- relative viability ([1]; first compound 0.01 µM): 0.164
- relative viability ([1]; first compound 0.03162 µM): 0.172
- relative viability ([1]; first compound 0.1 µM): 0.19
- relative viability ([1]; first compound 0.3162 µM): 0.172
- relative viability ([1]; first compound 1 µM): 0.191
- relative viability ([2]; first compound 0.01 µM): 0.682
- relative viability ([2]; first compound 0.03162 µM): 0.705
- relative viability ([2]; first compound 0.1 µM): 0.634
- relative viability ([2]; first compound 0.3162 µM): 0.625
- relative viability ([2]; first compound 1 µM): 0.721
- relative viability ([3]; first compound 0.01 µM): 0.406
- relative viability ([3]; first compound 0.03162 µM): 0.376
- relative viability ([3]; first compound 0.1 µM): 0.641
- relative viability ([3]; first compound 0.3162 µM): 0.388
- relative viability ([3]; first compound 1 µM): 0.433
- relative viability ([4]; first compound 0.01 µM): 0.332
- relative viability ([4]; first compound 0.03162 µM): 0.309
- relative viability ([4]; first compound 0.1 µM): 0.324
- relative viability ([4]; first compound 0.3162 µM): 0.328
- relative viability ([4]; first compound 1 µM): 0.381
- relative viability ([5]; first compound 0.01 µM): 0.7
- relative viability ([5]; first compound 0.03162 µM): 0.815
- relative viability ([5]; first compound 0.1 µM): 0.722
- relative viability ([5]; first compound 0.3162 µM): 0.491
- relative viability ([5]; first compound 1 µM): 0.487
- relative viability ([6]; first compound 0.01 µM): 0.882
- relative viability ([6]; first compound 0.03162 µM): 0.898
- relative viability ([6]; first compound 0.1 µM): 0.894
- relative viability ([6]; first compound 0.3162 µM): 1.02
- relative viability ([6]; first compound 1 µM): 0.86
- relative viability ([7]; first compound 0.01 µM): 0.208
- relative viability ([7]; first compound 0.03162 µM): 0.186
- relative viability ([7]; first compound 0.1 µM): 0.208
- relative viability ([7]; first compound 0.3162 µM): 0.203
- relative viability ([7]; first compound 1 µM): 0.223

SMILES: O=c1cc(-c2cccc3c2Sc2ccccc2S3)oc(N2CCOCC2)c1 + Nc1nc2[nH]cc(CCc3ccc(C(=O)N[C@@H](CCC(=O)O)C(=O)O)cc3)c2c(=O)[nH]1 [Pemetrexed] (partner 0.2 µM)
- relative viability ([1]; first compound 0.08 µM): 0.154
- relative viability ([1]; first compound 0.253 µM): 0.193
- relative viability ([1]; first compound 0.8 µM): 0.167
- relative viability ([1]; first compound 2.53 µM): 0.154
- relative viability ([1]; first compound 8 µM): 0.155
- relative viability ([2]; first compound 0.08 µM): 0.63
- relative viability ([2]; first compound 0.253 µM): 0.641
- relative viability ([2]; first compound 0.8 µM): 0.607
- relative viability ([2]; first compound 2.53 µM): 0.67
- relative viability ([2]; first compound 8 µM): 0.676
- relative viability ([3]; first compound 0.08 µM): 0.332
- relative viability ([3]; first compound 0.253 µM): 0.34
- relative viability ([3]; first compound 0.8 µM): 0.367
- relative viability ([3]; first compound 2.53 µM): 0.397
- relative viability ([3]; first compound 8 µM): 0.31
- relative viability ([4]; first compound 0.08 µM): 0.339
- relative viability ([4]; first compound 0.253 µM): 0.354
- relative viability ([4]; first compound 0.8 µM): 0.435
- relative viability ([4]; first compound 2.53 µM): 0.288
- relative viability ([4]; first compound 8 µM): 0.3
- relative viability ([5]; first compound 0.253 µM): 0.701
- relative viability ([5]; first compound 0.8 µM): 0.624
- relative viability ([5]; first compound 8 µM): 0.749
- relative viability ([6]; first compound 0.08 µM): 0.828
- relative viability ([6]; first compound 0.253 µM): 0.962
- relative viability ([6]; first compound 0.8 µM): 0.934
- relative viability ([6]; first compound 2.53 µM): 0.757
- relative viability ([6]; first compound 8 µM): 0.773
- relative viability ([7]; first compound 0.08 µM): 0.205
- relative viability ([7]; first compound 0.253 µM): 0.197
- relative viability ([7]; first compound 0.8 µM): 0.186
- relative viability ([7]; first compound 2.53 µM): 0.191
- relative viability ([7]; first compound 8 µM): 0.18

SMILES: COc1nc(C)cnc1NS(=O)(=O)c1cccnc1-c1ccc(-c2nnco2)cc1 [Zibotentan] + C[C@@H](Oc1cc(-c2cnn(C3CCNCC3)c2)cnc1N)c1c(Cl)ccc(F)c1Cl [Crizotinib] (partner 1 µM)
- relative viability ([8]; first compound 0.08 µM): 0.932
- relative viability ([8]; first compound 0.253 µM): 0.696
- relative viability ([8]; first compound 0.8 µM): 0.742
- relative viability ([8]; first compound 2.53 µM): 0.761
- relative viability ([9]; first compound 0.08 µM): 0.854
- relative viability ([9]; first compound 0.253 µM): 0.786
- relative viability ([9]; first compound 0.8 µM): 0.741
- relative viability ([9]; first compound 2.53 µM): 0.752
- relative viability ([10]; first compound 0.08 µM): 0.176
- relative viability ([10]; first compound 0.253 µM): 0.194
- relative viability ([10]; first compound 0.8 µM): 0.202
- relative viability ([10]; first compound 2.53 µM): 0.223
- relative viability ([1]; first compound 0.08 µM): 0.774
- relative viability ([1]; first compound 0.253 µM): 0.572
- relative viability ([1]; first compound 0.8 µM): 0.475
- relative viability ([1]; first compound 2.53 µM): 0.499
- relative viability ([2]; first compound 0.08 µM): 0.777
- relative viability ([2]; first compound 0.253 µM): 0.761
- relative viability ([2]; first compound 0.8 µM): 0.872
- relative viability ([2]; first compound 2.53 µM): 0.772
- relative viability ([11]; first compound 0.08 µM): 0.809
- relative viability ([11]; first compound 0.253 µM): 0.702
- relative viability ([11]; first compound 0.8 µM): 1.1
- relative viability ([11]; first compound 2.53 µM): 0.975
- relative viability ([3]; first compound 0.08 µM): 0.742
- relative viability ([3]; first compound 0.253 µM): 0.717
- relative viability ([3]; first compound 0.8 µM): 0.758
- relative viability ([3]; first compound 2.53 µM): 0.729
- relative viability ([12]; first compound 0.08 µM): 0.949
- relative viability ([12]; first compound 0.253 µM): 0.924
- relative viability ([12]; first compound 0.8 µM): 0.95
- relative viability ([12]; first compound 2.53 µM): 0.968
- relative viability ([4]; first compound 0.08 µM): 0.924
- relative viability ([4]; first compound 0.253 µM): 0.853
- relative viability ([4]; first compound 0.8 µM): 0.977
- relative viability ([4]; first compound 2.53 µM): 0.989
- relative viability ([13]; first compound 0.08 µM): 0.722
- relative viability ([13]; first compound 0.253 µM): 0.756
- relative viability ([13]; first compound 0.8 µM): 0.864
- relative viability ([13]; first compound 2.53 µM): 0.555
- relative viability ([6]; first compound 0.08 µM): 1.03
- relative viability ([6]; first compound 0.253 µM): 0.815
- relative viability ([6]; first compound 0.8 µM): 0.938
- relative viability ([6]; first compound 2.53 µM): 0.925
- relative viability ([7]; first compound 0.08 µM): 0.259
- relative viability ([7]; first compound 0.253 µM): 0.234
- relative viability ([7]; first compound 0.8 µM): 0.269
- relative viability ([7]; first compound 2.53 µM): 0.282
